Source: patent publication US20260256792A1, “TREATMENT OF CHRONIC SPONTANEOUS URTICARIA BY ADMINISTERING (R)-2-[3-[4-AMINO-3-(2-FLUORO-4-PHENOXY-PHENYL)PYRAZOLO[3,4-D]PYRIMIDIN-1-YL]PIPERIDINE-1-CARBONYL]-4-METHYL-4-[4-(OXETAN-3-YL)PIPERAZIN-1-YL]PENT-2-ENENITRILE” (priority 2023, published 2026)

System: moderate-to-severe chronic spontaneous urticaria (CSU)
Assay: Phase 2 CSU study: itch severity score over 7 days (ISS7)
Type: in vivo, human
Settings: for Change from Baseline in ISS7 at Week 12, Mean / Change from Baseline in ISS7 at Week 12, LS Mean / Change from Baseline in ISS7 at Week 12, LS Mean Diff vs. placebo: Omalizumab-naïve population; for ISS7 change from baseline at Week 12, LS Mean / ISS7 change from baseline at Week 12, LS Mean Diff vs. placebo: ANCOVA
From the text: The study comprises a 12 week, randomized, double-blind, placebo-controlled, multi-center, dose-ranging efficacy and safety phase, followed by a 40 week open label extension (OLE) phase (see FIG. 1). The study consists of three phases and an optional OLE phase. […] Clinically, CSU is characterized by the spontaneous and recurrent appearance of pruritic hives. The proposed primary endpoints were the UAS7 at Week 12 in EU and EU reference countries and the ISS7 in the US. Regardless of where a participant was from, all assessments were the same. The UAS7 score is a composite score containing both the HSS7 and the ISS7. This allowed a global assessment of the two key components of urticaria: hives and itch. […] The UAS is a validated PRO measure. […] The daily UAS scores range from 0 to 6 point/day. […] Patients were to complete the UAS using the e-diary. […] The following secondary endpoints were to be analyzed using the same approach as for the primary endpoint: • Change from baseline in UAS7 at Week 4 • Change from baseline in UAS7 at Week 12 (for US and US reference countries) • Change from baseline in ISS7 at Week 12 (except US and US reference countries) • Change from baseline in HSS7 at Week 12

[1] = 400 mg TID, Baseline ISS7 score <13
[2] = 400 mg TID, Baseline ISS7 score ≥13
[3] = 400 mg TID, Baseline Total IgE (IU/mL) <100
[4] = 400 mg TID, Baseline Total IgE (IU/mL) <300
[5] = 400 mg TID, Baseline Total IgE (IU/mL) ≥100
[6] = 400 mg TID, Baseline Total IgE (IU/mL) ≥300
[7] = 400 mg TID, Baseline UAS7 score <28
[8] = 400 mg TID, Baseline UAS7 score ≥28
[9] = 400 mg TID, Duration of disease (years) 2-10
[10] = 400 mg TID, Duration of disease (years) <2
[11] = 400 mg TID, Duration of disease (years) >10
[12] = 400 mg TID, Ethnicity Non-Hispanic
[13] = 400 mg TID, History of angioedema No
[14] = 400 mg TID, History of angioedema Yes
[15] = 400 mg TID, Race All the Others
[16] = 400 mg TID, Region Eastern Europe
[17] = 400 mg TID, Region Latin America
[18] = 400 mg TID, Region Western Countries
[19] = 400 mg TID, omalizumab-naïve population
[20] = 400 mg TID, omalizumab-naïve population with outlier removed
[21] = End of Study, 400 mg BID, Omalizumab-Naïve

CC(C)(C=C(C#N)C(=O)N1CCC[C@@H](n2nc(-c3ccc(Oc4ccccc4)cc3F)c3c(N)ncnc32)C1)N1CCN(C2COC2)CC1 [rilzabrutinib, (R)-2-[3-[4-amino-3-(2-fluoro-4-phenoxy-phenyl)pyrazolo[3,4-d]pyrimidin-1-yl]piperidine-1-carbonyl]-4-methyl-4-[4-(oxetan-3-yl)piperazin-1-yl]pent-2-enenitrile]
Change from Baseline in ISS7 at Week 12, Mean (400 mg TID, Baseline H1-antihistamines dose 2 to 4-fold standard dose): −12.76 | Change from Baseline in ISS7 at Week 12, LS Mean [1]: −3.73 | Change from Baseline in ISS7 at Week 12, LS Mean Diff vs. placebo [1]: −1.01 | Change from Baseline in ISS7 at Week 12, Mean [1]: −3.50 | Change from Baseline in ISS7 at Week 12, LS Mean [2]: −10.18 | Change from Baseline in ISS7 at Week 12, LS Mean Diff vs. placebo [2]: −4.45 | Change from Baseline in ISS7 at Week 12, Mean [2]: −10.79 | Change from Baseline in ISS7 at Week 12, LS Mean [3]: −9.19 | Change from Baseline in ISS7 at Week 12, LS Mean Diff vs. placebo [3]: −4.95 | Change from Baseline in ISS7 at Week 12, Mean [3]: −11.17 | Change from Baseline in ISS7 at Week 12, LS Mean [4]: −9.55 | Change from Baseline in ISS7 at Week 12, LS Mean Diff vs. placebo [4]: 5.04 | Change from Baseline in ISS7 at Week 12, LS Mean [5]: −9.13 | Change from Baseline in ISS7 at Week 12, LS Mean Diff vs. placebo [5]: −3.10 | Change from Baseline in ISS7 at Week 12, Mean [5]: −9.49 | Change from Baseline in ISS7 at Week 12, LS Mean [6]: −8.12 | Change from Baseline in ISS7 at Week 12, LS Mean Diff vs. placebo [6]: −1.58 | Change from Baseline in ISS7 at Week 12, Mean [6]: 8.74 | Change from Baseline in ISS7 at Week 12, LS Mean [7]: −6.43 | Change from Baseline in ISS7 at Week 12, LS Mean Diff vs. placebo [7]: −3.26 | Change from Baseline in ISS7 at Week 12, Mean [7]: −7.61 | Change from Baseline in ISS7 at Week 12, LS Mean [8]: −10.62 | Change from Baseline in ISS7 at Week 12, LS Mean Diff vs. placebo [8]: −4.02 | Change from Baseline in ISS7 at Week 12, Mean [8]: −11.99 | Change from Baseline in ISS7 at Week 12, LS Mean [9]: −8.84 | Change from Baseline in ISS7 at Week 12, LS Mean Diff vs. placebo [9]: −1.82 | Change from Baseline in ISS7 at Week 12, Mean [9]: −9.37 | Change from Baseline in ISS7 at Week 12, LS Mean [10]: −9.77 | Change from Baseline in ISS7 at Week 12, LS Mean Diff vs. placebo [10]: −6.12 | Change from Baseline in ISS7 at Week 12, Mean [10]: −10.93 | Change from Baseline in ISS7 at Week 12, LS Mean [11]: −9.33 | Change from Baseline in ISS7 at Week 12, LS Mean Diff vs. placebo [11]: −5.64 | Change from Baseline in ISS7 at Week 12, Mean [11]: −11.00 | Change from Baseline in ISS7 at Week 12, LS Mean (400 mg TID, Ethnicity Hispanic): 7.36 | Change from Baseline in ISS7 at Week 12, LS Mean Diff vs. placebo (400 mg TID, Ethnicity Hispanic): −0.35 | Change from Baseline in ISS7 at Week 12, Mean (400 mg TID, Ethnicity Hispanic): −8.13 | Change from Baseline in ISS7 at Week 12, LS Mean [12]: −10.16 | Change from Baseline in ISS7 at Week 12, LS Mean Diff vs. placebo [12]: −5.69 | Change from Baseline in ISS7 at Week 12, Mean [12]: −11.83 | Change from Baseline in ISS7 at Week 12, Mean (400 mg TID, Gender Male): −7.08 | Change from Baseline in ISS7 at Week 12, LS Mean [13]: −9.56 | Change from Baseline in ISS7 at Week 12, LS Mean Diff vs. placebo [13]: −4.22 | Change from Baseline in ISS7 at Week 12, Mean [13]: −10.86 | Change from Baseline in ISS7 at Week 12, LS Mean [14]: −8.24 | Change from Baseline in ISS7 at Week 12, LS Mean Diff vs. placebo [14]: −2.99 | Change from Baseline in ISS7 at Week 12, Mean [14]: −9.01 | ISS7 at Week 12, Mean (400 mg TID, ITT population): 5.59 | ISS7 at Week 12, Median (400 mg TID, ITT population): 6.00 | ISS7 change from baseline at Week 12, Mean (400 mg TID, ITT population): −10.68 | ISS7 change from baseline at Week 12, Median (400 mg TID, ITT population): −10.67 | LS mean change from baseline in ISS7 at Week 12 (400 mg TID, ITT population): −9.58 points | ISS7 change from baseline at Week 12, LS Mean (400 mg TID, ITT population): −9.58 points | ISS7 change from baseline at Week 12, LS Mean Diff vs. placebo (400 mg TID, ITT population): −3.26 | decrease from baseline in ISS7 (400 mg TID, ITT population, belongs to LS mean change −6.65): 40.41% | LS mean change in ISS7 from baseline (see Table 29) (400 mg TID, ITT population, following one week of treatment): −6.65 points | Change from Baseline in ISS7 at Week 12, LS Mean [15]: −8.74 | Change from Baseline in ISS7 at Week 12, LS Mean Diff vs. placebo [15]: −5.27 | Change from Baseline in ISS7 at Week 12, Mean [15]: −8.74 | Change from Baseline in ISS7 at Week 12, LS Mean (400 mg TID, Race White): −9.18 | Change from Baseline in ISS7 at Week 12, LS Mean Diff vs. placebo (400 mg TID, Race White): −3.17 | Change from Baseline in ISS7 at Week 12, Mean (400 mg TID, Race White): −10.88 | Change from Baseline in ISS7 at Week 12, LS Mean (400 mg TID, Region Asia): −8.33 | Change from Baseline in ISS7 at Week 12, LS Mean Diff vs. placebo (400 mg TID, Region Asia): −4.87 | Change from Baseline in ISS7 at Week 12, Mean (400 mg TID, Region Asia): −8.21 | Change from Baseline in ISS7 at Week 12, LS Mean [16]: −14.02 | Change from Baseline in ISS7 at Week 12, LS Mean Diff vs. placebo [16]: −1.35 | Change from Baseline in ISS7 at Week 12, Mean [16]: −13.17 | Change from Baseline in ISS7 at Week 12, LS Mean [17]: −6.07 | Change from Baseline in ISS7 at Week 12, LS Mean Diff vs. placebo [17]: 0.52 | Change from Baseline in ISS7 at Week 12, Mean [17]: −7.34 | Change from Baseline in ISS7 at Week 12, LS Mean [18]: 9.58 | Change from Baseline in ISS7 at Week 12, LS Mean Diff vs. placebo [18]: −5.03 | Change from Baseline in ISS7 at Week 12, Mean [18]: −11.79 | ISS7 at Week 12, Mean [19]: 5.77 | ISS7 at Week 12, Median [19]: 7.00 | ISS7 change from baseline at Week 12, Mean [19]: −10.27 | ISS7 change from baseline at Week 12, Median [19]: −10.33 | LS mean change from baseline in ISS7 at Week 12 [19]: −9.21 | LS mean reduction in ISS7 (see Table 30) [19]: −6.13 | ISS7 at Week 12, Mean [20]: 5.77 | ISS7 at Week 12, Median [20]: 7.00 | ISS7 change from baseline at Week 12, Mean [20]: −10.27 | ISS7 change from baseline at Week 12, Median [20]: −10.33 | ISS7 change from baseline at Week 12, LS Mean [20]: −9.57 points | ISS7 change from baseline at Week 12, LS Mean Diff vs. placebo [20]: −3.86 | LS mean change from baseline in ISS7 at Week 12 (400 mg TID, omalizumab-naïve population, outlier removed): −9.57 | ISS7 change from baseline at Week 12, LS Mean [19]: −9.21 points | ISS7 change from baseline at Week 12, LS Mean Diff vs. placebo [19]: −3.44 | ISS7 Mean (SD) [21]: 7.80 (8.76) | ISS7 Median [21]: 7.00 | ISS7 Mean (SD) (End of Study, 400 mg QPM, Omalizumab-Naïve): 5.74 (8.03)
